# Experimental data: US8791132B2, “Compounds and methods for treatment of hypertension” (Medivation Technologies, Inc., priority 2011, dated 2014)
# Experiments:
# [1] = target: T1, human recombinant adrenergic α2B receptor (Homo sapiens, UniProt P18089); assay: Radioligand binding, adrenergic α2B ([3H]Rauwolscine); conditions: for Percentage inhibition of ligand binding, Adrenergic α2B (0.03 μM): compound at 0.03 μM; for inhibition at 0.03 µM: read-out: Percentage inhibition of ligand binding, Adrenergic α2B (0.03 μM), compound at 0.03 μM; for Ki: read-out: Ki α2B
# T1 construct: expressed in transfected cells; host or cells: CHO-K1
# T1 sequence (P18089 1-450): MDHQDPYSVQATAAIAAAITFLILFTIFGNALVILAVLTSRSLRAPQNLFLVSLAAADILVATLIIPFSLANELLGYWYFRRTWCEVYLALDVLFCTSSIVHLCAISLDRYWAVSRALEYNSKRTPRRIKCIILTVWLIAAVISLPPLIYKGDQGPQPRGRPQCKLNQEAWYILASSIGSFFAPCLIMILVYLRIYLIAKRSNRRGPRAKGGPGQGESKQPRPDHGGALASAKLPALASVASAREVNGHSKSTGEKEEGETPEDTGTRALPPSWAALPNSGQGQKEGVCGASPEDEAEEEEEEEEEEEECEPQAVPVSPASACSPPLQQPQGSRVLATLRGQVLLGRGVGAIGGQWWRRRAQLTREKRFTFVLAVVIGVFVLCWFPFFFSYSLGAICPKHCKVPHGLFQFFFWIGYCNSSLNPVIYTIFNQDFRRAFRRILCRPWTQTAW
# Outline: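 Readout: percent inhibition of specific [3H]Rauwolscine binding, measured by filtration and counting. Conditions: CHO-K1 cell-expressed receptor, 2.5 nM radioligand, 60 min, 25° C, Tris-HCl pH 7.4 buffer with MgCl2, EDTA, BSA. Non-specific binding: 10 μM Prazosin.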
# [2] = target: T2, rat adrenergic α1B receptor (Rattus norvegicus, UniProt P15823); assay: Radioligand binding, adrenergic α1B ([3H]Prazosin); conditions: [3H]Prazosin, repeat datapoints each shown; for Percentage inhibition of ligand binding, Adrenergic α1B (0.1 μM): compound at 0.1 μM; for inhibition at 0.1 µM: read-out: Percentage inhibition of ligand binding, Adrenergic α1B (0.1 μM), compound at 0.1 μM; for inhibition at 0.03 µM: read-out: Percentage inhibition of ligand binding, Adrenergic α1B (0.03 μM), compound at 0.03 μM
# T2 construct: rat adrenergic α1B receptor obtained from Wistar Rat liver; from tissue; host or cells: Wistar rat liver
# T2 sequence (P15823 1-515): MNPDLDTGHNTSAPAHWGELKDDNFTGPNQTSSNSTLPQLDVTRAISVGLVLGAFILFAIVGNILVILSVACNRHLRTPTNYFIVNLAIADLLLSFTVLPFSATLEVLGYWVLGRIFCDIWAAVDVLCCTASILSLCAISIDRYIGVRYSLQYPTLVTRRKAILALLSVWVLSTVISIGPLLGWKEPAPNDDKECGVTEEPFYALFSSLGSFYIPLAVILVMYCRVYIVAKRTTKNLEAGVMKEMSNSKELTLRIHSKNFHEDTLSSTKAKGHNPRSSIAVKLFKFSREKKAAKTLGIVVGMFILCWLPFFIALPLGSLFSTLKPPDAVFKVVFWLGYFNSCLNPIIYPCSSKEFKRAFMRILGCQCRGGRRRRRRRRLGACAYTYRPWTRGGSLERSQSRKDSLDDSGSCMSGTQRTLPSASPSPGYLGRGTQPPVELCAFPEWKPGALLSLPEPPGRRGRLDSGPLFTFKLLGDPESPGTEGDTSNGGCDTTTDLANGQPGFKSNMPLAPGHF
# Outline: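 Filter binding with Wistar rat liver α1B preparation: test compound plus 0.25 nM [3H]prazosin, 1 h at 25° C in modified Tris-HCl buffer pH 7.4.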
# [3] = target: T3, human recombinant adrenergic α2A receptor (Homo sapiens, UniProt P08913); assay: Radioligand binding, adrenergic α2A ([3H]MK-912); conditions: for Percentage inhibition of ligand binding, Adrenergic α2A (0.1 μM): compound at 0.1 μM; for inhibition at 0.1 µM: read-out: Percentage inhibition of ligand binding, Adrenergic α2A (0.1 μM), compound at 0.1 μM
# T3 construct: expressed in transfected cells; host or cells: insect Sf9 cells
# T3 sequence (P08913 1-465): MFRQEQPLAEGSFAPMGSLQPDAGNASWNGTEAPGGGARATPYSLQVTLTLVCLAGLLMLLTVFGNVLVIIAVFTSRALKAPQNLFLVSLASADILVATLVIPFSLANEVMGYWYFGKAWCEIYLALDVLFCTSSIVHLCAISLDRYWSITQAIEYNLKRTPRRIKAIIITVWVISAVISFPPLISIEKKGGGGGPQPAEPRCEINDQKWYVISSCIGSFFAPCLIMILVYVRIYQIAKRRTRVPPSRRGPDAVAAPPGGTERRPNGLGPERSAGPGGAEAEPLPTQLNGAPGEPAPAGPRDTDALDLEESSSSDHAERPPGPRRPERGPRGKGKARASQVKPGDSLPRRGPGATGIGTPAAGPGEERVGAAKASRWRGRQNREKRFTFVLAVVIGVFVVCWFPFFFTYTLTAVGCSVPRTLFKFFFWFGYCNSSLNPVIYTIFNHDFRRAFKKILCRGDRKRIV
# Outline: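 In 50 mM Tris-HCl (pH 7.4) containing 12.5 mM MgCl2 and 2 mM EDTA, Sf9-expressed receptor was exposed to test compound plus 1 nM [3H]MK-912 at 25 °C for 60 min. Specific binding, corrected using 10 μM WB-4101, was quantified by filtration and counting and expressed as percent inhibition.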
# [4] = [3H]Rauwolscine, repeat datapoints each shown
# [5] = [3H]MK-912, repeat datapoints each shown
Compound,"Percentage inhibition of ligand binding, Adrenergic α2B (0.03 μM) [1, 4] [%]","Percentage inhibition of ligand binding, Adrenergic α1B (0.1 μM) [2] [%]","Percentage inhibition of ligand binding, Adrenergic α2A (0.1 μM) [3, 5] [%]","inhibition at 0.03 µM [1, 4] [%]",inhibition at 0.1 µM [2] [%],Ki [1] [nM],inhibition at 0.03 µM [2] [%],Ki [3] [nM],"inhibition at 0.03 µM ([3]; read-out: Percentage inhibition of ligand binding, Adrenergic α2A (0.03 μM), compound at 0.03 μM, [3H]MK-912, repeat datapoints each shown) [%]","inhibition at 0.1 µM [3, 5] [%]","inhibition at 0.1 µM ([1]; read-out: Percentage inhibition of ligand binding, Adrenergic α2B (0.1 μM), compound at 0.1 μM, [3H]Rauwolscine, repeat datapoints each shown) [%]"
"Cc1cc(C)c2c(c1)c1c(n2CC(O)c2ccncc2)CCN2CCCC12 (single isomer, unassigned) [II-125d, 2-(8,10-dimethyl-2,3,5,6-tetrahydro-1H-indolizino[7,8-b]indol-7(11cH)-yl)-1-(pyridin-4-yl)ethanol]",88,64,71,–,–,–,–,–,–,–,–
"Cc1ccc2c(c1)c1c(n2CC(C)(O)c2cccnc2)CCN2CCCC12 (single isomer, unassigned) [II-127a, 1-(9-methyl-1,2,3,4,5,10c-hexahydro-3a,6-diaza-cyclopenta[c]fluoren-6-yl)-2-pyridin-3-yl-propan-2-ol]",–,–,79,105,83,–,–,–,–,–,–
"Cc1ccc2c(c1)c1c(n2CC(C)(O)c2cccnc2)CCN2CCCC12 (single isomer, unassigned) [II-127b, 1-(9-methyl-1,2,3,4,5,10c-hexahydro-3a,6-diaza-cyclopenta[c]fluoren-6-yl)-2-pyridin-3-yl-propan-2-ol]",104,65,54,–,–,–,–,–,–,–,–
"Cc1ccc2c(c1)c1c(n2CC(C)(O)c2ccc(C)nc2)CCN2CCCC12 (single isomer, unassigned) [II-128b, 1-(9-methyl-1,2,3,4,5,10c-hexahydro-3a,6-diaza-cyclopenta[c]fluoren-6-yl)-2-(6-methyl-pyridin-3-yl)-propan-2-ol]",106,86,77,102,84,0.49,56,13.1,50,74,–
"CC(O)(Cn1c2c(c3cc(Cl)ccc31)C1CCCN1CC2)c1cccnc1 (single isomer, unassigned) [II-130a, 1-(10-chloro-2,3,5,6-tetrahydro-1H-indolizino[7,8-b]indol-7(11cH)-yl)-2-(pyridin-3-yl)propan-2-ol]",103,92,86,–,–,–,–,–,–,–,–
"CC(O)(Cn1c2c(c3cc(Cl)ccc31)C1CCCN1CC2)c1cccnc1 (single isomer, unassigned) [II-130b, 1-(10-chloro-2,3,5,6-tetrahydro-1H-indolizino[7,8-b]indol-7(11cH)-yl)-2-(pyridin-3-yl)propan-2-ol]",33,3,15,–,–,–,–,–,–,–,–
"Cc1ccc2c(c1)c1c(n2CC(O)c2cc[nH]c(=O)c2)CCN2CCCC12 (single isomer, unassigned) [II-132a, 4-(2-(2,3,5,6-tetrahydro-10-methyl-1H-indolizino[7,8-b]indol-7(11cH)-yl)-1-hydroxyethyl)pyridin-2(1H)-one]",40,33,8,–,–,–,–,–,–,–,–
"Cc1ccc2c(c1)c1c(n2CC(O)c2cc[nH]c(=O)c2)CCN2CCCC12 (single isomer, unassigned) [II-132b, 4-(2-(2,3,5,6-tetrahydro-10-methyl-1H-indolizino[7,8-b]indol-7(11cH)-yl)-1-hydroxyethyl)pyridin-2(1H)-one]",70,68,22,–,–,–,–,–,–,–,–
"Cc1ccc2c(c1)c1c(n2CC(C)(O)c2cccnc2)CCN(C)CC1 (single isomer, unassigned) [II-135b, 1-(3,9-dimethyl-2,3,4,5-tetrahydroazepino[4,5-b]indol-6(1H)-yl)-2-(pyridin-3-yl)propan-2-ol]",105,70,–,103,60,0.53,26,–,–,40,105
"Cc1ccc2c(c1)c1c(n2CC(C)(O)c2ccc(C(N)=O)nc2)CCN(C)C1 (single isomer, unassigned) [II-136a, 5-(1-(1,2,3,4-tetrahydro-2,8-dimethylpyrido[4,3-b]indol-5-yl)-2-hydroxypropan-2-yl)pyridine-2-carboxamide]",–,60,–,36,–,–,–,–,–,7,–
"Cc1ccc2c(c1)c1c(n2CC(C)(O)c2ccc(C(N)=O)nc2)CCN(C)C1 (single isomer, unassigned) [II-136b, 5-(1-(1,2,3,4-tetrahydro-2,8-dimethylpyrido[4,3-b]indol-5-yl)-2-hydroxypropan-2-yl)pyridine-2-carboxamide]",32,31,5,–,–,–,–,–,–,–,–
"Cc1ccc2c(c1)c1c(n2CC(C)(O)c2cccnc2)CC(C)N(C)C1 (single isomer, unassigned) [II-146a, 2-(pyridin-3-yl)-1-(2,3,8-trimethyl-3,4-dihydro-1H-pyrido[4,3-b]indol-5(2H)-yl)propan-2-ol]",102,–,47,–,23,–,–,–,–,–,–
"Cc1ccc2c(c1)c1c(n2CC(C)(O)c2cccnc2)CC(C)N(C)C1 (single isomer, unassigned) [II-146b, 2-(pyridin-3-yl)-1-(2,3,8-trimethyl-3,4-dihydro-1H-pyrido[4,3-b]indol-5(2H)-yl)propan-2-ol]",43,13,5,–,–,–,–,–,–,–,–
"Cc1ccc2c(c1)c1c(n2CC(C)(O)c2cccnc2)CC(C)N(C)C1 (single isomer, unassigned) [II-146c, 2-(pyridin-3-yl)-1-(2,3,8-trimethyl-3,4-dihydro-1H-pyrido[4,3-b]indol-5(2H)-yl)propan-2-ol]",42,17,8,–,–,–,–,–,–,–,–
